≈ marks a conversion by molar mass, not a printed value. Read-outs that look alike come from different tables or passages of the source.
Columns and labels:
[1] = system: patient derived organoids; type: cell-based, human; conditions: for % Cell Death: organoid cell death
Text: A few of the above drug products, as well as additional drugs were tried for response to patient derived organoids.

[2] = system: patient derived organoids (PD3D Cell Culture); assay: Calculated IC50 in PD3D cell culture of the patient derived organoids; type: cell-based, human
[3] = system: patient derived chemosensitive and chemoresistant ovarian cancer organoids; assay: Four Cannabis extracts on newly obtained ovarian cancer organoids, viability; type: cell-based, human
Method: Applicant then tested several different Cannabis extracts at varying concentrations on newly obtained patient derived chemosensitive and chemoresistant ovarian cancer organoids. […] Here, the BSHE continued to work at virtually the same level as prior tests, even though these organoids were generated from different patients than all prior tests. […] However, what remains constant is that at or about 10 μg/mL, virtually all patient derived organoid samples begin to or reach zero viability.

[4] = system: patient derived endometrial cancer organoids; assay: Carboplatin alone or with Cannabis extract, endometrial cancer organoids; type: cell-based, human
Text: To determine if this premise is conserved over different chemotherapeutic agents, Applicant repeated the tests replacing paclitaxel with carboplatin toward a related gynecological cancer cell, endometrial cancer cells. The surprising findings with paclitaxel were further confirmed by testing the impacts of carboplatin alone or carboplatin with a Cannabis extract.
Finally, with a dose of 250 μm/mL carboplatin, a 2.5× in the dose from the […] test, all of the combined therapeutics with carboplatin and Cannabis extract are below 10% viability, while the carboplatin alone remains at above 30%.

cancer organoid = assay: Effect of pH of the Cannabis extract on organoid viability; type: cell-based, human; conditions: pH 8
Method: A further interesting observation was determined by the impacts of pH on the efficacy of the Cannabis extract on organoid data. […] In each case, the control vehicle, buffered to the same pH was ineffective in killing the cells at all, and thus was not depicted. […] However, pH of 12, and certainly of 14 are highly corrosive, alkaline concentrations and are not suitable for therapeutic use.
Accordingly, when providing the Cannabis extract for therapeutic administration, […] yields an unexpected increase in efficacy.

[5] = system: chemosensitive ovarian cancer cells, derived from ascites cells; conditions: for viability: human, 14 days
[6] = system: patient derived endometrial cancer cells; type: in vivo, mice; conditions: paclitaxel alone 10 mg/kg (30.007 mg/m^2), 21 days
Method: Human patient cells from endometrial cancer were injected subcutaneously into female NOD/SCID gamma mice after resuspending in 100 μL solution. […] All treatment group mice were kept alive for up to 10 weeks after drug injection or until the tumor volume grows bigger than 2500 mm^3.

[7] = system: chemoresistant ovarian cancer organoid
Method: To culture patient-derived organoids, 2-3×10^3 cells were plated in a pre-warmed (37° C.) 96-well plate in 10 mL of Matrigel (5%FBS AD+++ medium) per well. Individual patient cell organoid was cultured separately in different plates. Individual patient cells were handled separately to reduce the chance of cross-contamination. After mixing cells with Matrigel, 10 mL droplets were placed in wells and put in a 37° C. incubator with 5% CO2 for 30 minutes. Upon solidification of the Matrigel droplet with cells inside, the plate was placed inside a sterile hood and immersed the Matrigel droplet in 200 μL of organoid growth media. Cells were allowed to grow into mature organoids for 14 days. […] All treatments were done in triplicate, including vehicle-only controls (Dimethyl sulfoxide in culture medium at the highest concentration used for drug treatments).
To assess the cell viability in organoids after treatments, CellTiter-Glo® Luminescent Assay (Promega #G7572) was used. In brief, on day 14 of organoid culture, the matrigel droplet in each well with organoid inside was immersed in 100 μL of fresh growth media and 100 μL of CellTiter-Glo® reagent following the manufacturer's guideline. Blank wells containing only media and CellTiter Glo® reagent (no cells) were also included in each plate. Then the plates were put on a shaker @ 110 rpm at room temperature for 5 minutes to induce cell lysis, followed by 25 minutes at room temperature to stabilize the luminescent signal. Each step after adding the CellTiter Glo® reagent was performed in the dark. Luminescence was measured on a FLUOstar OPTIMA plate reader (BMG Lab technologies, Offenburg, Germany). Analysis was performed by normalizing treatment values to the vehicle control and plotting them as a percentage of the vehicle control. Drug IC50 values were determined by inhibitor vs normalized response-variable slope using least squares regression in Graphpad Prism 9.

Row | Compound | % Cell Death [1] | Calculated IC50 PD3D Cell Culture [2] | other results
1 | 5-Fluorouaracil/Capecitabine | 61% | – | –
2 | O=C1O[C@H]([C@@H](O)CO)C(O)=C1O [Ascorbic Acid] | – | Not Reached | –
3 | C=C(C)[C@@H]1CCC(C)=C[C@H]1c1c(O)cc(CCCCC)cc1O [CBD isolate, cannabidiol] | – | – | viability at 15 µg/mL ([3]; Homo sapiens, 15 μg/mL, all samples): 0%; viability at 20 µg/mL ([3]; Homo sapiens, 20 μg/mL, all samples): 0%; IC50 ([4]; Homo sapiens, extract alone): 3 µg/mL (≈ 9.54 µM); viability ([4]; carboplatin 50 μm/mL with IC50 amount of extract): ~37%; improvement in viability on adding the extract ([4]; carboplatin 100 μm/mL plus IC50 amount of extract): 32%; killing of the organoids compared with native pH (cancer organoid): virtually no change
4 | C=C(C)[C@@H]1CCC(C)=C[C@H]1c1c(O)cc(CCCCC)c(C(=O)O)c1O [CBDA, cannabidiolic acid] | – | – | viability ([3]; 50 μg/mL): nearing zero viability
5 | CO[C@H]1C(=O)[C@]2(C)[C@@H](OC)C[C@H]3OC[C@@]3(OC(C)=O)[C@H]2[C@H](OC(=O)c2ccccc2)[C@]2(O)C[C@H](OC(=O)[C@H](O)[C@@H](NC(=O)OC(C)(C)C)c3ccccc3)C(C)=C1C2(C)C [Cabazitaxel] | 37% | – | –
6 | N.N.O=C([O-])C1(C(=O)[O-])CCC1.[Pt+2] [Carboplatin] | 30% | – | viability ([4]; carboplatin alone 50 μg/mL): about 50%; viability ([4]; carboplatin alone 100 μg/mL): about 50%; total drop in viability on increasing the dose by 5× ([4]; carboplatin alone 50 to 250 μm/mL): about 17%
7 | N.N.[Cl][Pt][Cl] [Cisplatin] | 36% | – | –
8 | O=C(c1ccc(F)c(F)c1Nc1ccc(I)cc1F)N1CC(O)([C@@H]2CCCCN2)C1 [Cobimetinib] | – | Not Reached | –
9 | C[C@@H](Oc1cc(-c2cnn(C3CCNCC3)c2)cnc1N)c1c(Cl)ccc(F)c1Cl [Crizotinib] | – | Not Reached | –
10 | O=P1(N(CCCl)CCCl)NCCCO1 (stereo not drawn) [Cyclosphosphamide] | 32% | – | –
11 | CN(C)/N=N/c1[nH]cnc1C(N)=O [Dacarbazine] | 32% | – | –
12 | O=C(O)C(Cl)Cl [Dichloracetate] | – | Not Reached | –
13 | CC(=O)O[C@@]12CO[C@@H]1C[C@H](O)[C@@]1(C)C(=O)[C@H](O)C3=C(C)[C@@H](OC(=O)[C@H](O)[C@@H](NC(=O)OC(C)(C)C)c4ccccc4)C[C@@](O)([C@@H](OC(=O)c4ccccc4)[C@H]21)C3(C)C [Docetaxel] | No Response | – | –
14 | COc1cccc2c1C(=O)c1c(O)c3c(c(O)c1C2=O)C[C@@](O)(C(=O)CO)C[C@@H]3O[C@H]1C[C@H](N)[C@H](O)[C@H](C)O1 [Doxorubicin] | 39% | – | –
15 | COc1cc([C@@H]2c3cc4c(cc3[C@@H](O[C@@H]3O[C@@H]5CO[C@@H](C)O[C@H]5[C@H](O)[C@H]3O)[C@H]3COC(=O)[C@H]23)OCO4)cc(OC)c1O [Etoposide] | 33% | – | –
16 | Nc1ccn([C@@H]2O[C@H](CO)[C@@H](O)C2(F)F)c(=O)n1 [Gemcitabine] | 56% | – | –
17 | N[C@@H](CCC(=O)N[C@@H](CS)C(=O)NCC(=O)O)C(=O)O [Glutathione] | – | Not Reached | –
18 | CCN(CCO)CCCC(C)Nc1ccnc2cc(Cl)ccc12 (stereo not drawn) [Hydroxychloroquine] | – | Not Reached | –
19 | CCc1c2c(nc3ccc(OC(=O)N4CCC(N5CCCCC5)CC4)cc13)-c1cc3c(c(=O)n1C2)COC(=O)[C@]3(O)CC [Irinotecan] | 51% | – | –
20 | COc1cc2nccc(Oc3ccc(NC(=O)NC4CC4)c(Cl)c3)c2cc1C(N)=O [Lenvatinib] | – | Not Reached | –
21 | N[C@@H](Cc1ccc(N(CCCl)CCCl)cc1)C(=O)O [Melphalan] | 40% | – | –

Row | Compound | % Cell Death [1] | Calculated IC50 PD3D Cell Culture [2] | other results
22 | CN(C)C(=N)N=C(N)N [Metformin] | – | Not Reached | –
23 | O=C1c2c(O)ccc(O)c2C(=O)c2c(NCCNCCO)ccc(NCCNCCO)c21 [Mitoxantrone] | 50% | – | –
24 | O=C(c1cc(Cc2n[nH]c(=O)c3ccccc23)ccc1F)N1CCN(C(=O)C2CC2)CC1 [Olaparib] | – | Not Reached | –
25 | CC(=O)O[C@H]1C(=O)[C@@]2(C)[C@H]([C@H](OC(=O)c3ccccc3)[C@]3(O)C[C@H](OC(=O)[C@H](O)[C@@H](NC(=O)c4ccccc4)c4ccccc4)C(C)=C1C3(C)C)[C@]1(OC(C)=O)CO[C@@H]1C[C@@H]2O [Paclitaxel] | 39% | – | viability ([5]; 4 nm/mL): about 89%; viability ([5]; 20 nm/mL): about 57%; change in viability on increasing the dose by 5× ([5]; paclitaxel alone 4 to 20 nm/mL): 32%; overall kill rate ([5]; paclitaxel alone, highest dose (20 nm/mL)): less than 50%; effect on tumor volume / tumor growth [6]: ineffective in reducing tumor growth; effect on tumor volume / tumor growth ([6]; listed as paclitaxel): in essence ineffective; viability ([7]; paclitaxel alone 4 nm/mL): 45%; change in viability on adding 5× more paclitaxel ([7]; paclitaxel alone 4 to 20 nm/mL): about 3%; viability ([7]; paclitaxel alone, 5× more (20 nm/mL)): 42%
26 | Nc1nc2[nH]cc(CCc3ccc(C(=O)N[C@@H](CCC(=O)O)C(=O)O)cc3)c2c(=O)[nH]1 [Pemetrexed] | No Response | Not Reached | –
27 | Nc1cccc2c1C(=O)N(C1CCC(=O)NC1=O)C2=O (stereo not drawn) [Pomalidomide] | – | Not Reached | –
28 | CCN(CC)CCNC(=O)c1c(C)[nH]c(/C=C2\C(=O)Nc3ccc(F)cc32)c1C [Sunitnib] | – | Not Reached | –
29 | Cn1nnc2c(C(N)=O)ncn2c1=O [Temozolomide] | 40% | – | –
30 | COc1cc2c(cc1O)CCN[C@]21CS[C@@H]2c3c(OC(C)=O)c(C)c4c(c3[C@H](COC1=O)N1[C@@H]2[C@H]2c3c(cc(C)c(OC)c3O)C[C@@H]([C@@H]1O)N2C)OCO4 [Trabectedine] | 32% | – | –
31 | CC[C@]1(O)C[C@@H]2CN(CCc3c([nH]c4ccccc34)[C@@](C(=O)OC)(c3cc4c(cc3OC)N(C)[C@H]3[C@@](O)(C(=O)OC)[C@H](OC(C)=O)[C@]5(CC)C=CCN6CC[C@]43[C@@H]65)C2)C1 [Vinblastine] | 38% | – | –
32 | CCC1=C[C@@H]2CN(C1)Cc1c([nH]c3ccccc13)[C@@](C(=O)OC)(c1cc3c(cc1OC)N(C)[C@H]1[C@@](O)(C(=O)OC)[C@H](OC(C)=O)[C@]4(CC)C=CCN5CC[C@]31[C@@H]54)C2 [Vinorelbine] | 45% | – | –
33 | COc1cccc2c1C(=O)c1c(O)c3c(c(O)c1C2=O)C[C@@](O)(C(=O)CO)C[C@@H]3O[C@H]1C[C@H](N)[C@@H](O)[C@H](C)O1 [epirubicin] | No Response | – | –
34 | C=C1C[C@@H]2CC[C@@]34C[C@H]5O[C@H]6[C@@H](O3)[C@H]3O[C@H](CC[C@@H]3O[C@H]6[C@H]5O4)CC(=O)C[C@@H]3[C@@H](OC)[C@@H](C[C@H](O)CN)O[C@H]3C[C@H]3O[C@@H](CC[C@@H]1O2)C[C@@H](C)C3=C [eribulin] | No Response | – | –
35 | O=P1(NCCCl)OCCCN1CCCl (stereo not drawn) [ifosfamide] | No Response | – | –
36 | CN(Cc1cnc2nc(N)nc(N)c2n1)c1ccc(C(=O)N[C@@H](CCC(=O)O)C(=O)O)cc1 [methotrexate] | No Response | – | –
37 | CO[C@@]12[C@H](COC(N)=O)C3=C(C(=O)C(C)=C(N)C3=O)N1C[C@@H]1N[C@@H]12 [mitomycin] | No Response | – | –
38 | O=C1[O][Pt]2([NH][C@@H]3CCCC[C@H]3[NH]2)[O]C1=O [oxaliplatin] | No Response | – | –
39 | CC[C@]1(O)C[C@H]2CN(CCc3c([nH]c4ccccc34)[C@@](C(=O)OC)(c3cc4c(cc3OC)N(C=O)[C@H]3[C@@](O)(C(=O)OC)[C@H](OC(C)=O)[C@]5(CC)C=CCN6CC[C@]43[C@@H]65)C2)C1 [vincristine] | No Response | – | –
40 | Bevacizumab | – | Not Reached | –
41 | Bleomycin | 53% | – | –
42 | gemcitabine/capecitabine [GemCap] | – | – | response of the patient's organoid ([1]; organoid of the chemoresistant endometrial cancer patient): partial response

— patent publication US12440528B2, “Methods of treating ovarian cancer with hemp extract” (Ecofibre USA Inc., priority 2021, dated 2025)
